# Counter-ions that a name gives are not always drawn. Like-named read-outs stand apart in the source and are kept apart here.
# Assays:
# human PHD2 = biological target: T1, human PHD2 (Homo sapiens, UniProt Q9GZT9); test: Measurement of human PHD inhibitory activity (TR-FRET, hydroxylation of HIF-1α partial peptide); type: biochemical; conditions: for IC50: human PHD2 enzyme 1 nM, 25° C. 30 min, values consisting solely of numbers
# T1 construct: made in house; host or cells: Sf9 insect cells (baculovirus, pVL1393 vector)
# T1 sequence (Q9GZT9 whole entry): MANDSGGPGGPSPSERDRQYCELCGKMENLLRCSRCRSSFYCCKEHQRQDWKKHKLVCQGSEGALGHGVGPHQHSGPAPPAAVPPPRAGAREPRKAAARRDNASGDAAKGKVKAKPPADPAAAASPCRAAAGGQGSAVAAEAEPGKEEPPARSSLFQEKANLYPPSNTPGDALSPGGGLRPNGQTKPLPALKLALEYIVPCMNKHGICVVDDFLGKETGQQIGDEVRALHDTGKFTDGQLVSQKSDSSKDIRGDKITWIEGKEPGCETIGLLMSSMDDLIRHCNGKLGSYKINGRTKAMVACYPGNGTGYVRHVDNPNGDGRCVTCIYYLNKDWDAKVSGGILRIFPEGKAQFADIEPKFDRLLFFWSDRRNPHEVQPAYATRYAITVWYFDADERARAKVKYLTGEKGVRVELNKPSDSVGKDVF
# Summary of the method: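 FLAG-tagged human PHD2 from Sf9 cells (1 nM final) hydroxylates a biotinylated 19-residue HIF-1α peptide, 30 min at 25° C. After EDTA stop, hydroxyproline detected by TR-FRET using Eu/Xlent-labelled VBC complex; % inhibition relative to no-enzyme and no-compound wells.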
# [1] = tested on: human EPO production, Hep3B cells; test: Human EPO production activity in Hep3B cells (EPO-ELISA of culture supernatant); type: cell-based; conditions: for EC50: 24 hr incubation, values consisting solely of numbers, read-out: EC50 (μM) in vitro, human EPO production activity; for production activity (%) at 30 μM in vitro, human EPO: 24 hr, values containing %, relative to maximum production
# Summary of the method: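 Hep3B cells were dosed with compound 24 h after plating and incubated 24 h at 37° C. Secreted EPO in supernatant was measured by ELISA. Values are EC50, or activity (%) at 30 μM scaled between untreated and maximum production.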
# [2] = read-out: IC50 (μM) in vitro, human PHD inhibitory activity
compound,measurement,setting,value
"O=C(O)CNC(=O)c1c(O)cc(CC2CCCC2)n2ncnc12 [Example 20, [(5-cyclopentylmethyl-7-hydroxy[1,2,4]triazolo[1,5-a]pyridin-8-carbonyl)amino]acetic acid hydrochloride]",IC50,human PHD2; [2],0.59 µM
same,EC50,[1]; Homo sapiens,6.6 µM
"O=C(O)CNC(=O)c1c(O)cc(CCC2CCCC2)c2ncnn12 [Example 99, {[8-(2-cyclopentylethyl)-6-hydroxy[1,2,4]triazolo[1,5-a]pyridine-5-carbonyl]amino} acetic acid hydrochloride]",IC50,human PHD2; [2],0.87 µM
same,EC50,[1]; Homo sapiens,20.2 µM
"O=C(O)CNC(=O)c1c(O)cc(-c2cc(F)cc(F)c2)c2ncnn12 [Example 85, {[8-(3,5-difluorophenyl)-6-hydroxy[1,2,4]triazolo[1,5-a]pyridine-5-carbonyl]amino} acetic acid hydrochloride]",IC50,human PHD2; [2],0.16 µM
same,EC50,[1]; Homo sapiens,20.6 µM
"C[C@H](NC(=O)c1c(O)cc(CCc2ccccc2)n2ncnc12)C(=O)O [Example 69, (S)-2-[(7-hydroxy-5-phenethyl[1,2,4]triazolo[1,5-a]pyridine-8-carbonyl)amino] propionic acid hydrochloride]",IC50,human PHD2; [2],1.62 µM
same,EC50,[1]; Homo sapiens,12 µM
"O=C(O)CNC(=O)c1c(O)cc(CCC2CCC2)n2ncnc12 [Example 54, {[5-(2-cyclobutylethyl)-7-hydroxy[1,2,4]triazolo[1,5-a]pyridine-8-carbonyl]amino} acetic acid hydrochloride]",IC50,human PHD2; [2],0.44 µM
same,EC50,[1]; Homo sapiens,4.5 µM
"Cl.O=C(O)CNC(=O)c1c(O)cc(CC2CCCCC2)c2ncnn12 [Example 91, [(8-cyclohexylmethyl-6-hydroxy[1,2,4]triazolo[1,5-a]pyridine-5-carbonyl)amino] acetic acid hydrochloride]",IC50,human PHD2; [2],1.53 µM
same,"production activity (%) at 30 μM in vitro, human EPO",[1],43%
"O=C(O)CNC(=O)c1c(O)cc(-c2cc(F)c(F)c(F)c2)n2ncnc12 [Example 49, {[7-hydroxy-5-(3,4,5-trifluorophenyl)[1,2,4]triazolo[1,5-a]pyridine-8-carbonyl]amino}acetic acid hydrochloride]",IC50,human PHD2; [2],0.24 µM
same,EC50,[1]; Homo sapiens,11.7 µM
"C[C@@H](NC(=O)c1c(O)cc(-c2cc(F)cc(F)c2)n2ncnc12)C(=O)O [Example 64, (R)-2-{[5-(3,5-difluorophenyl)-7-hydroxy[1,2,4]triazolo[1,5-a]pyridine-8-carbonyl]amino} propionic acid hydrochloride]",IC50,human PHD2; [2],6.88 µM
same,"production activity (%) at 30 μM in vitro, human EPO",[1],0%
"O=C(O)CNC(=O)c1c(O)c(-c2ccccc2)cn2cnnc12 [Example 9, [(7-hydroxy-6-phenyl[1,2,4]triazolo[4,3-a]pyridine-8-carbonyl)amino]acetic acid]",IC50,human PHD2; [2],1.57 µM
same,"production activity (%) at 30 μM in vitro, human EPO",[1],1%
"CC(C)(C)CCc1cc(O)c(C(=O)NCC(=O)O)c2ncnn12 [Example 24, {[5-(3,3-dimethylbutyl)-7-hydroxy[1,2,4]triazolo[1,5-a]pyridine-8-carbonyl]amino}acetic acid hydrochloride]",IC50,human PHD2; [2],0.57 µM
same,EC50,[1]; Homo sapiens,5.4 µM
"Cl.O=C(O)CNC(=O)c1c(O)ccn2c(CCC3CCCCC3)nnc12 [Example 115, {[3-(2-cyclohexylethyl)-7-hydroxy[1,2,4]triazolo[4,3-a]pyridine-8-carbonyl]amino} acetic acid hydrochloride]",IC50,human PHD2; [2],1.8 µM
same,"production activity (%) at 30 μM in vitro, human EPO",[1],0%
"O=C(O)CNC(=O)c1c(O)cc(-c2cccc(F)c2F)n2ncnc12 [Example 59, {[5-(2,3-difluorophenyl)-7-hydroxy[1,2,4]triazolo[1,5-a]pyridine-8-carbonyl]amino} acetic acid hydrochloride]",IC50,human PHD2; [2],0.26 µM
same,"production activity (%) at 30 μM in vitro, human EPO",[1],49%
"O=C(O)CNC(=O)c1c(O)cc(C2=CCCCC2)c2ncnn12 [Example 93, [(8-cyclohex-1-enyl-6-hydroxy[1,2,4]triazolo[1,5-a]pyridine-5-carbonyl)amino] acetic acid hydrochloride]",IC50,human PHD2; [2],0.51 µM
same,EC50,[1]; Homo sapiens,16 µM
"CC(C)CCc1cc(O)c(C(=O)NCC(=O)O)c2ncnn12 [Example 18, {[7-hydroxy-5-(3-methylbutyl)[1,2,4]triazolo[1,5-a]pyridine-8-carbonyl]amino}acetic acid hydrochloride]",IC50,human PHD2; [2],0.48 µM
same,EC50,[1]; Homo sapiens,6.1 µM
"O=C(O)CNC(=O)c1c(O)cc(-c2ccc(F)c(F)c2)n2ncnc12 [Example 25, {[5-(3,4-difluorophenyl)-7-hydroxy[1,2,4]triazolo[1,5-a]pyridine-8-carbonyl]amino}acetic acid hydrochloride]",IC50,human PHD2; [2],0.25 µM
same,EC50,[1]; Homo sapiens,14.1 µM
"C[C@@H](NC(=O)c1c(O)cc(CCc2ccccc2)n2ncnc12)C(=O)O [Example 70, (R)-2-[(7-hydroxy-5-phenethyl[1,2,4]triazolo[1,5-a]pyridine-8-carbonyl)amino] propionic acid hydrochloride]",inhibition at 30 µM,"human PHD2; at 30 μM, values containing %, read-out: inhibitory activity (%) at 30 μM in vitro, human PHD",38%
same,"production activity (%) at 30 μM in vitro, human EPO",[1],1%
"O=C(O)CNC(=O)c1c(O)cc(CC2CCC2)n2ncnc12 [Example 53, [(5-cyclobutylmethyl-7-hydroxy[1,2,4]triazolo[1,5-a]pyridine-8-carbonyl)amino] acetic acid hydrochloride]",IC50,human PHD2; [2],0.5 µM
same,EC50,[1]; Homo sapiens,8.9 µM
"O=C(O)CNC(=O)c1c(O)cc(CCc2ccccc2)n2ncnc12 [Example 116, [(7-hydroxy-5-phenethyl[1,2,4]triazolo[1,5-a]pyridine-8-carbonyl)amino] acetic acid]",IC50,"human PHD2; IC50 (μM) in vitro, human PHD inhibitory activity",0.18 µM
same,EC50,[1],5.6 µM
"O=C(O)CNC(=O)c1c(O)cc(-c2cc(C(F)(F)F)cc(C(F)(F)F)c2)c2ncnn12 [Example 97, {[8-(3,5-bis-trifluoromethyl-phenyl)-6-hydroxy[1,2,4]triazolo[1,5-a]pyridine-5-carbonyl]amino} acetic acid hydrochloride]",IC50,human PHD2; [2],0.13 µM
same,EC50,[1]; Homo sapiens,3.5 µM
"Cc1ccc(-c2cc(O)c(C(=O)NCC(=O)O)c3ncnn23)s1 [Example 72, {[7-hydroxy-5-(5-methylthiophen-2-yl) [1,2,4]triazolo[1,5-a]pyridine-8-carbonyl]amino} acetic acid hydrochloride]",IC50,human PHD2; [2],0.4 µM
same,EC50,[1]; Homo sapiens,4 µM

# — US8283465B2, “Triazolopyridine compound, and action thereof as prolyl hydroxylase inhibitor or erythropoietin production-inducing agent” (Japan Tobacco Inc., priority 2009, dated 2012)
